Entries after “also recorded” stand apart in the source; their conditions may differ.
Assays:
Format in all cases: in vivo, human
[1] = tested on: type 2 diabetic patient with diabetes related kidney disease; assay: Case report: diabetes related kidney disease (proteinuria) treated with the subject method; conditions: 1500 milligrams per 24-hour period before treatment, increasing 500 milligrams/24 hours/year; 5 years of use
Description: (§1) The preferred embodiment of the method for delivering insulin pulses to a patient to improve impaired hepatic glucose processing is as follows. On the morning of the procedure, the patient is preferably seated in a blood drawing chair and a 23 gauge needle or catheter is preferably inserted into a hand or forearm vein to obtain vascular access. However, any system of such access may accomplish the needed result, including indwelling catheters, PICC lines and PORTACATHS. After a short equilibration period, the patient is asked to make a circulating glucose measurement prior to starting the actual infusion of insulin. A steady baseline circulating glucose level is achieved when two identical consecutive measurements taken 5 minutes apart is obtained. It is preferable that patients have circulating glucose levels close to 200 mg/dl prior to using the infusion method. In the case of pregnant diabetic women, however, every attempt is made to keep the maximum circulating glucose level to 150 mg/dl or less. […]
(§2) For all of the above listed examples, after the initial few days of treatment, the patients underwent treatment once a week, each treatment day consisting of three infusions of insulin accompanied by ingestion of carbohydrates. […] The patients' circulating glucose was measured once every thirty minutes by the finger stick method currently used by most diabetic patients. […]

[2] = tested on: type 2 diabetic male with autonomic neuropathy; assay: Case report: elevated blood pressure with autonomic neuropathy treated with the subject method; conditions: 200/120 before treatment despite intensive insulin therapy; 5 years of use
Description: as §1, §2

[3] = tested on: diabetic patients with retinopathy; assay: Case reports: diabetic retinopathy patients treated with the subject method; conditions: single patients with retinopathy; listed as subject method
Description: as §1, §2

[4] = tested on: diabetic patients with leg ulcers; assay: Case reports: diabetes related leg ulcers treated with the subject method; conditions: ulcers not responding to any available therapy; listed as subject method
Description: as §1, §2

[5] = tested on: diabetic patients with neuropathy; assay: Case reports: diabetic neuropathy patients treated with the subject method
Description: (§3) The preferred embodiment of the method for delivering insulin pulses to a patient to improve impaired hepatic glucose processing is as follows. On the morning of the procedure, the patient is preferably seated in a blood drawing chair and a 23 gauge needle or catheter is preferably inserted into a hand or forearm vein to obtain vascular access. However, any system of such access may accomplish the needed result, including indwelling catheters, PICC lines and PORTACATHS. After a short equilibration period, the patient is asked to make a circulating glucose measurement prior to starting the actual infusion of insulin. A steady baseline circulating glucose level is achieved when two identical consecutive measurements taken 5 minutes apart is obtained. It is preferable that patients have circulating glucose levels close to 200 mg/dl prior to using the infusion method. In the case of pregnant diabetic women, however, every attempt is made to keep the maximum circulating glucose level to 150 mg/dl or less.
(§4) After the circulating glucose measurement has been taken and the patient has the proper circulating glucose starting level, the patient is asked to consume a liquid or food containing glucose. The amount of glucose given to s diabetic patient ranges from 60 to 100 grams, but for small framed people the amount could be as low as 40 grams of glucose. However, the amount of initial glucose given to the patient may vary. Liquid or food containing glucose is consumed by the patient to prevent the patient from becoming hypoglycemic. The preferred liquid or food is GLUCOLA, but any similar type of liquid or high glycemic food, including but not limited to cake and bread, containing glucose may be given to the patient. In a non-diabetic patient more glucose may be required than in the diabetic patient, but the other parameters would remain the same, including the need for a pulsed delivery of insulin.
Pulses of insulin are then administered intravenously at planned intervals of time, usually every six minutes. However other intervals may be used from as low as every three minutes up to every 30 minutes. For diabetic patients the amount of insulin in each pulse is 10-200 milliunits of insulin per kilogram of body weight; for non-diabetic patients the amount of insulin in each pulse is slightly lower. […]
as §2

[6] = tested on: diabetic patients with heart disease; assay: Case reports: diabetic heart disease patients treated with the subject method
Description: as §3
as §4, with “In a non-diabetic patient more glucose may be required than in the diabetic patient, but the other parameters would remain the same, including the need for a pulsed delivery of insulin.” left out
as §2

[7] = tested on: patients suffering from senile dementia; assay: Senile dementia in diabetic patients treated with the method (Hepatic Activation)
Description: as §3
After the circulating glucose measurement has been taken and the patient has the proper circulating glucose starting level, the patient is asked to consume a liquid or food containing glucose. The amount of glucose given to s diabetic patient ranges from 60 to 100 grams, but for small framed people the amount could be as low as 40 grams of glucose. […]

[8] = tested on: type 1 DM patients with nephropathy; assay: 18-month multi-center controlled study of Chronic Intermittent Intravenous Insulin Therapy (CIIIT) on progression of diabetic nephropathy
Description: A study was conducted to assess the effects of Chronic Intermittent Intravenous Insulin Therapy (CIIIT) on the progression of diabetic nephropathy in patients with type 1 diabetes mellitus (DM). This 18-month multi-center, prospective, controlled study involved 49 type 1 DM patients with nephropathy who were following the Diabetes Control and Complications Trial (DCCT) intensive therapy (IT) regimen. Of these, 26 patients formed the control group C, which continued on IT, while 23 patients formed the treatment group (T) and underwent, in addition to IT, weekly CIIIT.
For all of the above listed examples, after the initial few days of treatment, the patients underwent treatment once a week, each treatment day consisting of three infusions of insulin accompanied by ingestion of carbohydrates. The infusion device used to infuse the insulin was the BIONICA MD-110 pump. Typically there were ten pulses given over a period of one hour, and a rest period of one hour was taken between infusions of insulin. The form in which the carbohydrates were ingested changed from time to time and included eating foods of high glycemic index including but not limited to bread and cake. The patients' circulating glucose was measured once every thirty minutes by the finger stick method currently used by most diabetic patients. […]

[9] = type 1 person with severe neuropathy, Example 14

insulin
proteinuria after treatment [1]: 600-800 milligrams/24 hours
blood pressure after treatment [2]: 120/80
eyesight / retinal outcome after treatment [3]: eyesight improved to the point where night driving was no longer a concern; also recorded: the bleeding stopped, and there was no further deterioration of the retina
leg ulcer outcome after treatment [4]: ulcers on their second leg healed; also recorded: ulcers healed and have never returned
neuropathic pain after treatment ([5]; single patients with polyneuropathy / painful peripheral neuropathy, weekly treatment, listed as subject method): pain has been reduced to the point where the person enjoys rigorous exercise; also recorded: no longer takes pain medication and has no twinges of pain in their legs; also recorded: pain had subsided to the point where they no longer used a wheelchair
gastroparesis after treatment [5, 9]: gastroparesis was reversed
numbness in legs after treatment [5, 9]: numbness in their legs has gone away
autonomic neuropathy symptoms after treatment (overall disease state) ([5]; type 1 person, bed-ridden with autonomic neuropathy before treatment, two years of use): reversed all of the diseases to the point where they have taken themself off disability
cardiac clinical outcome after treatment ([6]; single patients with diabetes related heart disease, listed as subject method): no longer required a heart transplant; also recorded: could withstand 4-vessel by-pass surgery; also recorded: condition improved to the point where the doctors performed two instead of one grafts
daily insulin intake after treatment ([6]; type 2 patient with dilated cardiomyopathy, 150 units a day before treatment): 24-26 units/day
ejection fraction after treatment ([6]; type 2 patient with severe dilated cardiomyopathy, 14-19% before treatment, 10 years of treatment): 29-32%
dementia symptoms after treatment ([7]; listed as Hepatic Activation): significant improvement in their motor skills, memory, and cognitive function
dementia symptoms after treatment ([7]; listed as present invention): clearly shown improvement in confusion, weakness, disorientation, cognitive function and lack of memory
effect on progression of diabetic nephropathy (conclusion) ([8]; CIIIT added to IT in type 1 DM patients with overt nephropathy): markedly reduce the progression of diabetic nephropathy
rate of creatinine clearance (CrCl) decline ([8]; T group (n=23): DCCT intensive therapy (IT) plus weekly CIIIT, 18 months, control group C on IT alone 7.69±1.88 ml/min/yr, P=0.0343): 2.21±1.62 ml/min/yr
